Results reported in US20190202836A1, “SELECTIVE DUAL INHIBITORS OF PI3 DELTA AND GAMMA PROTEIN KINASES” (Rhizen Pharmaceuticals SA, priority 2014, published 2019).

Experiments:
PI3K beta = target: T1, PI3K beta (Mus musculus, UniProt Q8BTI9); assay: Assay 4A2: LPA induced AktS473 phosphorylation in 3T3 fibroblasts; type: cell-based; conditions: LPA 5 μM, read-out: Cellular IC50 PI3K beta (LPA induced pAKT in 3T3 fibroblasts)
T1 construct: endogenous in cells; host or cells: 3T3 fibroblasts
Experimental: The objective of this study was to determine the effect of Compound A1 on PI3Kβ kinase mediated LPA induced AktS473 phosphorylation in 3T3 fibroblasts.
3T3 cells were treated with desired concentrations of the test compound for 15 minutes. 1 ml of 2× LPA was added such that the final concentration was 5 μM and incubated for 5 minutes.
(§1) Media was discarded and washed with 1 ml of ice-cold 1× PBS.
(§2) 250 μl of cell lysis buffer was added and incubated on ice for 30 minutes.
Samples were centrifuged and supernatant was maintained at −80° C. until analysis.
(§3) Samples were analyzed by Western Blotting using pAKT (S473) as the primary and anti-rabbit IgG-HRP as a secondary antibody.
(§4) Intensity of the bands was determined using ImageJ 1.42q (NIH, USA) and normalized to Actin (loading control). Data was plotted using GraphPad Prism (Version 5.02).

[1] = test system: human whole blood B-cell proliferation (CD19); assay: Assay 6B: Inhibition of LPS induced CD19 in human whole blood; type: cell-based; conditions: diluted human whole blood, 72 hours, read-out: EC50, inhibition of LPS-induced human whole blood B-cell proliferation (CD19 expression)
Experimental: The effect of Compound A1 on modulating B-cell receptor (BCR)-activated proliferation of human or mouse B-lymphocytes was determined. CD19 is a protein present on B cells from the earliest recognizable B-lineage cells during development to B-cell blasts but is however lost on maturation to plasma cells. LPS is an endotoxin and a major component of environmental microbes with a potent mitogenic activity on B-cells via the […].
Diluted human whole blood was treated with DMSO or desired concentrations of Compound A1. Samples were induced with LPS 15 minutes after addition of compound and incubated for 72 hours at 37° C. and 5% CO2. Cells positive for CD45 and CD19 were determined by flow cytometry and data are expressed as percentage CD19 positive cells in the total population.

PI3K gamma = target: T2, PI3K gamma (Mus musculus, UniProt Q9JHG7); assay: Assay 4A3: c5a induced AktS473 phosphorylation in RAW 264.7 macrophages; type: cell-based; conditions: c5a 50 ng/ml, read-out: Cellular IC50 PI3K gamma (c5a induced pAKT in RAW macrophages)
T2 construct: endogenous in cells; host or cells: RAW 264.7 macrophages
T2 sequence (Q9JHG7 whole entry): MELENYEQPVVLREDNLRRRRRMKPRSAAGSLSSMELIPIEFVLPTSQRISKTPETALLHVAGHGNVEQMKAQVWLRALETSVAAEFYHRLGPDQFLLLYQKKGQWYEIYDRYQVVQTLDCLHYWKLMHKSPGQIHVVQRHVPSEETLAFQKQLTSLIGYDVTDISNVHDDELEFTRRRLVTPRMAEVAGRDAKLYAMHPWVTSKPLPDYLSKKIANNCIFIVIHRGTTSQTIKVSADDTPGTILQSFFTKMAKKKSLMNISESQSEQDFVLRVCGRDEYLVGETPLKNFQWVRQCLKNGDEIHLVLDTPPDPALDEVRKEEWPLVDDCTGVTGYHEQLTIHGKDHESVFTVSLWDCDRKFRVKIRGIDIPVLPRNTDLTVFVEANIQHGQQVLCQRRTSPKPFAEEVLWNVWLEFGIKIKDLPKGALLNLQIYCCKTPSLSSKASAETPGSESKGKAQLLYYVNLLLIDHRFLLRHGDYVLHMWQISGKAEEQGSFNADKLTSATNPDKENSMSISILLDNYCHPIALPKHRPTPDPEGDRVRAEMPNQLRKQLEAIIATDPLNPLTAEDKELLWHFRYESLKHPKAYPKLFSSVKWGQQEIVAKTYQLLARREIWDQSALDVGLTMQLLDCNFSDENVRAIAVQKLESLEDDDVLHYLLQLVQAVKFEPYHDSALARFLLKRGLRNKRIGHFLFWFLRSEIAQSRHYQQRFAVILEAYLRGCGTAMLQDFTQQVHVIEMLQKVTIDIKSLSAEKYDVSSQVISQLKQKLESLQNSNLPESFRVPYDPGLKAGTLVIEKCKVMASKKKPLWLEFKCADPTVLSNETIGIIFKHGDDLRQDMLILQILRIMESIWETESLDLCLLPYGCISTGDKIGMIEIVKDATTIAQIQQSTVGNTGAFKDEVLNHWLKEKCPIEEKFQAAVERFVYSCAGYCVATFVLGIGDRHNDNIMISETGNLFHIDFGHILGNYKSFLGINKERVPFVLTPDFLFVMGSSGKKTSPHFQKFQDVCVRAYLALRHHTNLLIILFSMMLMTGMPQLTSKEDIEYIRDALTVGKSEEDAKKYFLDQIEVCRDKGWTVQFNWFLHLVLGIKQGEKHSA
Experimental: The objective of this study was to determine the effect of Compound A1 on PI3Kγ kinase mediated c5a induced AktS473 phosphorylation in RAW 264.7 macrophages.
RAW 264.7 cells were treated with desired concentrations of the test compound for 15 minutes. 1 ml of 2× c5a was added such that the final concentration was 50 ng/ml and incubated for 15 minutes.
as §1, §2
Samples were centrifuged and supernatant was stored at −80° C. until analysis
as §3, §4

PI3K delta = target: T3, PI3K delta (Homo sapiens, UniProt O00329); assay: Assay 4A1: Anti-IgM induced B-cell proliferation; type: cell-based; conditions: isolated human B-cells, 72 hours; read-out: Cellular IC50 PI3K delta (anti-IgM induced human B-cell proliferation)
T3 construct: endogenous in cells; host or cells: isolated human B-cells
T3 sequence (O00329 whole entry): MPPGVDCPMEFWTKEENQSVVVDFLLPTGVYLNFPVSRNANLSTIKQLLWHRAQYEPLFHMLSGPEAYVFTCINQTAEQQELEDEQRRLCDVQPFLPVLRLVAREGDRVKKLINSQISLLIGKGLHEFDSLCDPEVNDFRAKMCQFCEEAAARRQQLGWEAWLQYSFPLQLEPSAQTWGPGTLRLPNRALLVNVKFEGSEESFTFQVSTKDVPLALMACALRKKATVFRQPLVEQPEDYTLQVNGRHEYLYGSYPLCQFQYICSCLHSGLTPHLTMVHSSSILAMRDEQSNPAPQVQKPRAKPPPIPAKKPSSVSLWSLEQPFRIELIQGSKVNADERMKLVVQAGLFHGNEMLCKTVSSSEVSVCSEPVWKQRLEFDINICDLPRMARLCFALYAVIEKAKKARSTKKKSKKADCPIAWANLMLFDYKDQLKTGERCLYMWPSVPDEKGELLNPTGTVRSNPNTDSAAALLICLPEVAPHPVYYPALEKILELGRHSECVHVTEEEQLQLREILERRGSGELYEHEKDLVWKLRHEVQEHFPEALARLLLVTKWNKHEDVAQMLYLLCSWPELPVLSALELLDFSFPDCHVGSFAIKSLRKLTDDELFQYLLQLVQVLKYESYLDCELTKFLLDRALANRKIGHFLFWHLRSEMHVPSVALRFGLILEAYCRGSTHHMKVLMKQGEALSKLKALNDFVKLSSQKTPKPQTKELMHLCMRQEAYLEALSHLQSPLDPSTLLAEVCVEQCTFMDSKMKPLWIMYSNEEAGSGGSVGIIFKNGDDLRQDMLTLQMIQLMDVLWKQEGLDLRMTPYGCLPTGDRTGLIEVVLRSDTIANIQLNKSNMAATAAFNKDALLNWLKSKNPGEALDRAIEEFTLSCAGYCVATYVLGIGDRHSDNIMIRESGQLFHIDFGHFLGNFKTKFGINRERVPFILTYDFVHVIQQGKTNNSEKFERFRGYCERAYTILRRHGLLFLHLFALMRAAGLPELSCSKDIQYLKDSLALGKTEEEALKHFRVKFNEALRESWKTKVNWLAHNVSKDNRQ
T3 sequence (P27986 whole entry partner): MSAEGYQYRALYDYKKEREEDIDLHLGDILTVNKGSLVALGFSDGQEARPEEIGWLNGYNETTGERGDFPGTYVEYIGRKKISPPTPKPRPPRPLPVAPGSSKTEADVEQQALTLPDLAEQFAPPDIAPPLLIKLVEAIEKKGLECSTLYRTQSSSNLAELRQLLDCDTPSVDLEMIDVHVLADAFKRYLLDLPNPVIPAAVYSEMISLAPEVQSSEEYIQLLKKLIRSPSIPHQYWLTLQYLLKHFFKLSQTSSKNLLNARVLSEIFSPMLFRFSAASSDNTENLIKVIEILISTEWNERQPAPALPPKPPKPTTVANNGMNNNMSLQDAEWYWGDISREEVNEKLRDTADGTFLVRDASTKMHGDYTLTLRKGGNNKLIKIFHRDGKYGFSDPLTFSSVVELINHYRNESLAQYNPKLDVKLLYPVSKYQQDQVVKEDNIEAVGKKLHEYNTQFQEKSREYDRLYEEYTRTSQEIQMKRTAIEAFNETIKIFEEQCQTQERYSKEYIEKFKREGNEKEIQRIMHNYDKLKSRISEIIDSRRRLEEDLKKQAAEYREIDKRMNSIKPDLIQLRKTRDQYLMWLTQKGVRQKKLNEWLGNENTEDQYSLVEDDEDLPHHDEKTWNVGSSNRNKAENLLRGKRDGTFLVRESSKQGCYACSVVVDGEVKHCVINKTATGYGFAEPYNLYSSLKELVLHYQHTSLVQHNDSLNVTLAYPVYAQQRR
Experimental: The objective of this study was to assess the inhibitory potential of Compound A1 on anti-IgM induced human B-cell proliferation.
Isolated B-cells were re-suspended to 1.0×10^6 cells per ml. 100 μl of cell suspension was added to each well of a 96-well plate. Triplicates were maintained.
50 μl of drug dilution was added and mixed well. A DMSO blank and inducer blank were maintained.
The treated plate was incubated for 30 minutes at 37° C., 5% CO2 and then 50 μl of 4× inducer was added and mixed by pipetting.
The plate was incubated at 37° C., 5% CO2 for 72 hours.
Media was aspirated and 150 μl of DMSO was added to dissolve the formazan crystals.
Absorbance was read at A560 and A640 nm.

Female Wistar rats = assay: Assay 7: Lipopolysaccharide induced pulmonary neutrophilia in female Wistar rat model; type: in vivo; conditions: 10 mg/kg, oral, LPS intratracheally, BAL fluid 6 hours after LPS
Experimental: After the quarantine period, fasted animals were randomized and divided into various groups depending on their body weights. The test compound (Compound A1) was prepared as a suspension in a vehicle consisting of 0.5% methylcellulose in which Tween 80 as a suspending agent. The compound or vehicle was administered by oral gavage at a volume of 10 mL/kg. Female Wistar rats were anaesthetized with ketamine and LPS solution was administered intratracheally one hour after compound administration at a dose of 1 mg/kg. 6 hours after LPS instillation, animals were exsanguinated under anaesthesia, and then the trachea was cannulated and the lungs were lavaged with 5 ml aliquots of heparinised PBS (1 unit/ml) four times through a tracheal cannula (total volume 20 mL). Bronchoalveolar lavage (BAL) fluid was stored at 2-8° C. until assayed for total cell and differential leukocyte count. Bronchioalveolar fluid was centrifuged (500×g for 10 minutes) and the resulting cell pellet was resuspended in 0.5 ml of heparinised saline. The total numbers of white blood cells were determined in BAL fluid or blood by using a blood cell counter and was adjusted to 1×10^6 cell/ml. Differential cell count was calculated manually. […] The number of each cell type among 300 white blood cells in the cell smear was determined and expressed as a percentage. The number of […] in each BALf or blood was calculated.

[2] = Metabolic stability in rat liver microsomes; type: in vitro ADME; conditions: 1 μM test item, 60 minutes, 37° C., NADPH
Experimental: Metabolic stability studies were conducted on Compounds A, A1, and A2 as well as Example 128 of WO 2012/151525 using mouse, rat, dog, monkey, and human liver microsomes. The protocol for the studies with mouse, rat, and human liver microsomes (all from BD Gentest, USA) is provided below. 0.4 mg protein was preincubated with 2 mM NADPH (cofactor) in phosphate buffer (pH-7.4) for 15 minutes at 37° C. and then added with 1 μM test item and incubated further for 60 minutes in triplicate. The reaction mixture was terminated with methanol containing an internal standard and centrifuged further to analyze the test item remaining in the supernatant by LC-MS/MS. The percent parent compound remaining was calculated in comparison with similar samples terminated at 0 minutes.

T1 sequence (Q8BTI9 whole entry): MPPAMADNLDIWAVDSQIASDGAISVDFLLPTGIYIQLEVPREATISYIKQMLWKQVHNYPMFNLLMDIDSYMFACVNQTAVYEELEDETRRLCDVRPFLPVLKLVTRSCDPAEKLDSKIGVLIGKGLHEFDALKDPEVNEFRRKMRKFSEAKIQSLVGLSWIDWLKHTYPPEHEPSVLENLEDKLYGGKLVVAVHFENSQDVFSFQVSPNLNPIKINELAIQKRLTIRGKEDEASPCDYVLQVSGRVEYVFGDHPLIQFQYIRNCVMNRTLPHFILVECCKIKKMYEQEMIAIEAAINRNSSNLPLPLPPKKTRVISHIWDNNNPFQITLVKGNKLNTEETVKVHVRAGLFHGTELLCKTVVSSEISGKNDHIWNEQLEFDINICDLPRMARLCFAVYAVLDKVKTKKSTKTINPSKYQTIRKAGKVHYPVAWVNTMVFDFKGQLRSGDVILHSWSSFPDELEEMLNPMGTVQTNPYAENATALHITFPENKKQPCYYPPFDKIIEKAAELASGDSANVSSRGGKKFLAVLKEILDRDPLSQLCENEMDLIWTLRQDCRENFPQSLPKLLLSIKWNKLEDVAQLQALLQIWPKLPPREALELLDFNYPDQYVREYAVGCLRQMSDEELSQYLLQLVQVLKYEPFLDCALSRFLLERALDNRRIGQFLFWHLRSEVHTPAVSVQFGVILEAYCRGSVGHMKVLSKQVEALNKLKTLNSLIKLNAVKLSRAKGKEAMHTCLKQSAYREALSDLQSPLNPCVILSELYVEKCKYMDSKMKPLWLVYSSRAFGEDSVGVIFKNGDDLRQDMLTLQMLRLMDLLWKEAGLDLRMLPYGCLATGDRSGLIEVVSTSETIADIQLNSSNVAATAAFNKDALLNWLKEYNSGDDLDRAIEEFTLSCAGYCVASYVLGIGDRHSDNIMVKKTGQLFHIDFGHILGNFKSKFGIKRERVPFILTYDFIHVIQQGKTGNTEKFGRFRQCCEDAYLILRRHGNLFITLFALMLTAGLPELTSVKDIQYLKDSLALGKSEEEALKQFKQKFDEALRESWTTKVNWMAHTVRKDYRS
T1 sequence (P26450 whole entry partner): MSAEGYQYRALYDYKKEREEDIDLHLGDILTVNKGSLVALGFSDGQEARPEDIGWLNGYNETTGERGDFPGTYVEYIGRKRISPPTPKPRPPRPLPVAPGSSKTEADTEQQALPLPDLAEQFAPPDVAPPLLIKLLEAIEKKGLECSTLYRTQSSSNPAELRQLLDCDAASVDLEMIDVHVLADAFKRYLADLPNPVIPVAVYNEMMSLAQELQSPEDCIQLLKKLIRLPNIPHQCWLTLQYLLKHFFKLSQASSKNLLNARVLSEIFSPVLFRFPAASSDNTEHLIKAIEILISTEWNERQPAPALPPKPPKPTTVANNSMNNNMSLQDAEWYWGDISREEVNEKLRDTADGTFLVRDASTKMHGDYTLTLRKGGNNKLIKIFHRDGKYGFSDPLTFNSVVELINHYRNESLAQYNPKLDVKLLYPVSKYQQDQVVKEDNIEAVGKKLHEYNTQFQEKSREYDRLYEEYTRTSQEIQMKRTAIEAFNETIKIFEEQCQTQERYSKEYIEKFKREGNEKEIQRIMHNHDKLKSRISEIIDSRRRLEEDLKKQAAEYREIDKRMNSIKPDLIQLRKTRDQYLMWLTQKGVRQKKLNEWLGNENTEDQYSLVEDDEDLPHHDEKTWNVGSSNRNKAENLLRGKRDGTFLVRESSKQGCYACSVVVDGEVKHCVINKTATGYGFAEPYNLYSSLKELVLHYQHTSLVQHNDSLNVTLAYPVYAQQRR

IC50 (PI3K beta): 1320 nM
IC50 (PI3K gamma): 51.7 nM
IC50 (PI3K delta): 11 nM
Metabolic stability in liver microsomes (percent parent compound remaining), Rat [2]: 94.2%
SMILES: COc1ccc(-c2nn([C@@H](C)c3oc4cccc(F)c4c(=O)c3-c3cccc(F)c3)c3ncnc(N)c23)cc1NS(C)(=O)=O [Compound A1, (S)—N-(5-(4-amino-1-(1-(5-fluoro-3-(3-fluorophenyl)-4-oxo-4H-chromen-2-yl)ethyl)-1H-pyrazolo[3,4-d]pyrimidin-3-yl)-2-methoxyphenyl)methanesulfonamide]
EC50 [1]: 118 nM
inhibition of neutrophil infiltration into the lungs compared to the control group (Female Wistar rats): 65.29%
